Results from PubChem BioAssay (NCI).
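A five-concentration, 48-hour dose response in 96-well plates underlies each endpoint, interpolated linearly between surrounding concentrations. Definition used: TGI = concentration required for complete inhibition of growth.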

Key:
Assay in all cases: inhibition of tumour cell growth, NCI panel, 48 h
[1] = tested on: 786-0 renal
[2] = tested on: A498 renal
[3] = tested on: A549 NSCLC
[4] = tested on: ACHN renal
[5] = tested on: BT-549 breast
[6] = tested on: CAKI-1 renal
[7] = tested on: CCRF-CEM leukemia
[8] = tested on: COLO 205 colon
[9] = tested on: DU-145 prostate
[10] = tested on: EKVX NSCLC
[11] = tested on: HCC-2998 colon
[12] = tested on: HCT-116 colon
[13] = tested on: HCT-15 colon
[14] = tested on: HOP-62 NSCLC
[15] = tested on: HOP-92 NSCLC
[16] = tested on: HS 578T breast
[17] = tested on: HT29 colon
[18] = tested on: IGROV1 ovarian
[19] = tested on: K-562 leukemia
[20] = tested on: KM12 colon
[21] = tested on: LOX IMVI melanoma
[22] = tested on: M14 melanoma
[23] = tested on: MALME-3M melanoma
[24] = tested on: MCF7 breast
[25] = tested on: MDA-MB-231 breast
[26] = tested on: MDA-MB-435
[27] = tested on: MDA-N
[28] = tested on: MOLT-4 leukemia
[29] = tested on: NCI-H226 lung
[30] = tested on: NCI-H23 lung
[31] = tested on: NCI-H460 lung
[32] = tested on: NCI-H522 lung
[33] = tested on: NCI/ADR-RES ovarian
[34] = tested on: OVCAR-3 ovarian
[35] = tested on: OVCAR-4 ovarian
[36] = tested on: OVCAR-5 ovarian
[37] = tested on: OVCAR-8 ovarian
[38] = tested on: PC-3 prostate
[39] = tested on: RPMI-8226 leukemia
[40] = tested on: RXF 393 renal
[41] = tested on: SF-268 CNS
[42] = tested on: SF-295 CNS
[43] = tested on: SF-539 CNS
[44] = tested on: SK-MEL-2 melanoma
[45] = tested on: SK-MEL-28 melanoma
[46] = tested on: SK-MEL-5 melanoma
[47] = tested on: SK-OV-3 ovarian
[48] = tested on: SN12C renal
[49] = tested on: SNB-19 CNS
[50] = tested on: SNB-75 CNS
[51] = tested on: SR leukemia
[52] = tested on: SW-620 colon
[53] = tested on: T-47D breast
[54] = tested on: TK-10 renal
[55] = tested on: U251 CNS
[56] = tested on: UACC-257 melanoma
[57] = tested on: UACC-62 melanoma
[58] = tested on: UO-31 renal

Measured: TGI

O=C(O)Cc1cccnc1
> 100 µM: all assays above

CCOC(=O)/C=C/CCO[Si](C)(C)C(C)(C)C
not listed: [22]
> 100 µM: all other assays above
